Assay results from US6967215B2, “Tetrahydrocarbazoles, a process for the preparation of those compounds, and the use thereof” (Ciba Specialty Chemicals Corporation, priority 2000, dated 2005).

What was measured:
Experiment in all cases: MIC, microtitre dilution test (growth by optical density at 620 nm)
Format in all cases: cell-based
[1] = test system: P. aeruginosa; conditions: Table 5
Experimental: All the test organisms are adjusted to an organism count of 1-5×10^6 CFU/ml using 0.85% sodium chloride solution. The test substances are pre-pipetted into microtitre plates in an amount of 8 μl per well. Pre-diluted organism suspensions are diluted 1:100 in CASO bouillon (bacteria and yeast) or Sabouraud 2% glucose bouillon (mould) and are added in an amount of 192 μl per well to the test substances. The test batches are incubated for 48 hours at 37° C. (bacteria and yeast) or for 5 days at 28° C. (mould). After incubation, the growth is evaluated by reference to the turbidity of the test batches (optical density) at 620 nm in a microplate reader. The minimum inhibitory concentration (MIC value) is the concentration of substance at which (compared with the growth of the control) an appreciable inhibition of growth (≦20% growth) of the test organisms is ascertained. One microtitre plate is used for each test organism and substance concentration. All the substances are tested in duplicate.

[2] = test system: Escherichia coli NCTC 8196; conditions: for MIC [ppm] E. coil: Table 5; for MIC [ppm] E. coli: Table 2, Escherichia coli
Experimental: (§1) Casein/soybean flour peptone bouillon for the preparation of pre-cultures of the test bacteria and yeast.
(§2) The test substances are predissolved in dimethyl sulfoxide (DMSO) and tested in a dilution series of 1:2.
(§3) Bacteria and yeast are cultured overnight in CASO bouillon, the mould is cultured overnight on mycological slant agar, and washed off with 10 ml of 0.85% sodium chloride solution (+0.1% TritonX-100).
(§4) All the test organisms are adjusted to an organism count of 1-5×10^6 CFU/ml using 0.85% sodium chloride solution.
(§5) The test substances are pre-pipetted into microtitre plates in an amount of 8 μl per well.
(§6) Pre-diluted organism suspensions are diluted 1:100 in CASO bouillon (bacteria and yeast) or Sabouraud 2% glucose bouillon (mould) and are added in an amount of 192 μl per well to the test substances.
(§7) The test batches are incubated for 48 hours at 37° C. (bacteria and yeast) or for 5 days at 28° C. (mould).
(§8) After incubation, the growth is evaluated by reference to the turbidity of the test batches (optical density) at 620 nm in a microplate reader.
(§9) The minimum inhibitory concentration (MIC value) is the concentration of substance at which (compared with the growth of the control) an appreciable inhibition of growth (≦20% growth) of the test organisms is ascertained.
(§10) One microtitre plate is used for each test organism and substance concentration. All the substances are tested in duplicate.

[3] = test system: Staphylococcus hominis DMS 20328
Experimental: as §1, §2, §3, §4, §5, §6, §7, §8, §9, §10

[4] = test system: Aspergillus niger ATCC 6175; conditions: Table 5
Experimental: Nutrient: Mycological slant agar for the pre-culture of moulds [table] The test substances are predissolved in dimethyl sulfoxide (DMSO) and tested in a dilution series of 1:2. Bacteria and yeast are cultured overnight in CASO bouillon, the mould is cultured overnight on mycological slant agar, and washed off with 10 ml of 0.85% sodium chloride solution (+0.1% TritonX-100). All the test organisms are adjusted to an organism count of 1-5×10^6 CFU/ml using 0.85% sodium chloride solution. The test substances are pre-pipetted into microtitre plates in an amount of 8 μl per well. Pre-diluted organism suspensions are diluted 1:100 in CASO bouillon (bacteria and yeast) or Sabouraud 2% glucose bouillon (mould) and are added in an amount of 192 μl per well to the test substances. The test batches are incubated for 48 hours at 37° C. (bacteria and yeast) or for 5 days at 28° C. (mould). After incubation, the growth is evaluated by reference to the turbidity of the test batches (optical density) at 620 nm in a microplate reader. The minimum inhibitory concentration (MIC value) is the concentration of substance at which (compared with the growth of the control) an appreciable inhibition of growth (≦20% growth) of the test organisms is ascertained. One microtitre plate is used for each test organism and substance concentration. All the substances are tested in duplicate.

[5] = Table 2, Staphylococcus hominis DMS 20328

Compound	MIC [ppm] P. aeruginosa [1]	MIC [ppm] E. coil [2]	MIC [ppm] S. hominis ([3]; Table 5)	MIC [ppm] A. niger [4]	MIC [ppm] E. coli [2]	MIC [ppm] S. hominis [3, 5]
CCCN1CCC2c3c([nH]c4cccc(F)c34)C3C(=O)NC(=O)C3C2C1 (stereo not shown) [Compound 226]	>120 ppm	120 ppm	120 ppm	>120 ppm		
CCCN1CCC2c3c([nH]c4c(F)cccc34)C3C(=O)NC(=O)C3C2C1 (stereo not shown) [Compound 211]	120 ppm	120 ppm	>120 ppm	>120 ppm		
CCCN1CCC2c3c([nH]c4cccc(C(=O)OC)c34)C3C(=O)NC(=O)C3C2C1 (stereo not shown) [Compound 201]	60 ppm	>120 ppm	>120 ppm	>120 ppm		
CCCN1CCC2c3c([nH]c4cc(OC)c(OC)cc34)C3C(=O)NC(=O)C3C2C1 (stereo not shown) [Compound 238]	>120 ppm	>120 ppm	>120 ppm	>120 ppm		
COc1cccc2[nH]c3c(c12)C1CCCCCCCCCCC1C1C(=O)NC(=O)C31 (stereo not shown) [Compound 188]	>120 ppm	>120 ppm	15 ppm	>120 ppm		
COc1cccc2[nH]c3c(c12)C1CCCCCC1C1C(=O)NC(=O)C31 (stereo not shown) [Compound 187]	60 ppm	>120 ppm	30 ppm	>120 ppm		
CCCN1CCC2c3c([nH]c4cc(Cl)ccc34)C3C(=O)NC(=O)C3C2C1 (stereo not shown) [Compound 199]	>120 ppm	>120 ppm	120 ppm	>120 ppm		
CCCN1CCC2c3c([nH]c4ccc(F)cc34)C3C(=O)NC(=O)C3C2C1 (stereo not shown) [Compound 193]	>120 ppm	60 ppm	>120 ppm	>120 ppm		
CCCN1CCC2c3c([nH]c4cccc(OCC(O)CNC(C)C)c34)C3C(=O)NC(=O)C3C2C1 (stereo not shown) [Compound 190]	>120 ppm	>120 ppm	>120 ppm	>120 ppm		
CCCN1CCC2c3c([nH]c4ccc(C(=O)OC)cc34)C3C(=O)NC(=O)C3C2C1 (stereo not shown) [Compound 235]	>120 ppm	>120 ppm	120 ppm	>120 ppm		
CCCN1CCC2c3c([nH]c4cccc(C)c34)C3C(=O)NC(=O)C3C2C1 (stereo not shown) [Compound 186]	120 ppm	>120 ppm	>120 ppm	>120 ppm		
COc1ccc2[nH]c3c(c2c1)C1CCCCCCC1C1C(=O)NC(=O)C31 (stereo not shown) [Compound 107]					>120 ppm	120 ppm
CN1C(=O)C2c3[nH]c4ccccc4c3C3CCC(C(C)(C)C)CC3C2C1=O (stereo not shown) [Compound 111]					>120 ppm	60 ppm
O=C1NC(=O)C2C1c1[nH]c3ccccc3c1C1CC3CCCCC3CC12 (stereo not shown) [Compound 183]	>120 ppm	>120 ppm	15 ppm	>120 ppm		
CCCN1CCC2c3c([nH]c4ccccc34)C3C(=O)N(CC)C(=O)C3C2C1 (stereo not shown) [Compound 41]					>120 ppm	>120 ppm
CC(C)NCC(O)COc1cccc2[nH]c3c(c12)C1CCCCCC1C1C(=O)NC(=O)C31 (stereo not shown) [Compound 189]	>120 ppm	120 ppm	15 ppm	>120 ppm		
COc1ccc2[nH]c3c(c2c1)C1CCN(C(C)C)CC1C1C(=O)N(C)C(=O)C31 (stereo not shown) [Compound 171]					>120 ppm	>120 ppm
CCCN1CCC2c3c([nH]c4c(OC)cccc34)C3C(=O)NC(=O)C3C2C1 (stereo not shown) [Compound 229]	>120 ppm	>120 ppm	>120 ppm	>120 ppm		
CCOC(=O)N1CCC2c3c([nH]c4ccc(OC)cc34)C3C(=O)N(C)C(=O)C3C2C1 (stereo not shown) [Compound 170]					>120 ppm	>120 ppm

Compound	MIC [ppm] P. aeruginosa [1]	MIC [ppm] E. coil [2]	MIC [ppm] S. hominis ([3]; Table 5)	MIC [ppm] A. niger [4]	MIC [ppm] E. coli [2]	MIC [ppm] S. hominis [3, 5]
CCN1C(=O)C2c3[nH]c4ccccc4c3C3CCC(C(C)(C)C)CC3C2C1=O (stereo not shown) [Compound 39]					>120 ppm	>120 ppm
CCCN1CCC2c3c([nH]c4cccc(Cl)c34)C3C(=O)NC(=O)C3C2C1 (stereo not shown) [Compound 224]	120 ppm	>120 ppm	>120 ppm	>120 ppm		
CCC(C)(C)C1CCC2c3c([nH]c4ccc(OC)cc34)C3C(=O)N(C)C(=O)C3C2C1 (stereo not shown) [Compound 175]					>120 ppm	>120 ppm
CCCN1CCC2c3c([nH]c4cc(C)ccc34)C3C(=O)NC(=O)C3C2C1 (stereo not shown) [Compound 203]	>120 ppm	>120 ppm	>120 ppm	>120 ppm		
COc1ccc2[nH]c3c(c2c1)C1CCN(Cc2ccccc2)CC1C1C(=O)N(C)C(=O)C31 (stereo not shown) [Compound 177]					120 ppm	120 ppm
COc1ccc2[nH]c3c(c2c1)C1CCCCCC1C1C(=O)NC(=O)C31 (stereo not shown) [Compound 94]					>120 ppm	>120 ppm
CN1C(=O)C2c3[nH]c4ccccc4c3C3CC(C)(C)CC(C)(C)C3C2C1=O (stereo not shown) [Compound 126]					>120 ppm	>120 ppm
CCN1C(=O)C2c3[nH]c4ccc(Br)cc4c3C3CCC(C(C)(C)C)CC3C2C1=O (stereo not shown) [Compound 44]					>120 ppm	>120 ppm
CCc1cccc2c3c([nH]c12)C1C(=O)NC(=O)C1C1CCCCCCC31 (stereo not shown) [Compound 89]					>120 ppm	7.5 ppm
CCN1CCC2c3c([nH]c4ccc(OC)cc34)C3C(=O)NC(=O)C3C2C1 (stereo not shown) [Compound 103]					>120 ppm	>120 ppm
Cn1c2c(c3ccccc31)C1CCC(C(C)(C)C)CC1C1C(=O)NC(=O)C21 (stereo not shown) [Compound 36]					>120 ppm	>120 ppm
CCOC(=O)N1CCC2c3c([nH]c4ccccc34)C3C(=O)N(c4ccccc4)C(=O)C3C2C1 (stereo not shown) [Compound 52]					>120 ppm	>120 ppm
COc1ccc2[nH]c3c(c2c1)C1CCN(C)CC1C1C(=O)N(C)C(=O)C31 (stereo not shown) [Compound 178]					>120 ppm	>120 ppm
CC1CCC2C(C1)c1c([nH]c3ccccc13)C1C(=O)NC(=O)C12 (stereo not shown) [Compound 56]					>120 ppm	30 ppm
CCc1cccc2c3c([nH]c12)C1C(=O)NC(=O)C1C1CCCCCC31 (stereo not shown) [Compound 77]					>120 ppm	15 ppm
CC(C)N1CCC2c3c([nH]c4ccccc34)C3C(=O)N(C)C(=O)C3C2C1 (stereo not shown) [Compound 116]					>120 ppm	120 ppm
CC(C)(C)C1CCC2c3c([nH]c4ccccc34)C3C(=O)NC(=O)C3C2C1 (stereo not shown) [Compound 26]					>120 ppm	15 ppm
COc1ccc2[nH]c3c(c2c1)C1CCN(Cc2ccccc2)CC1C1C(=O)NC(=O)C31 (stereo not shown) [Compound 104]					>120 ppm	>120 ppm
